Experimental data: the kinase profiling compilation of Christmann-Franck et al. (2016)

Key:
Test in all cases: KINOMEscan competition binding
Conditions in all cases: compound 10.0 µM
ACVR1B (human) = ACVR1B (human) (UniProt P36896)
ADCK4 (human) = ADCK4 (human) (UniProt Q96D53)
AURKA (human) = AURKA (human) (UniProt O14965)
CDK16 (human) = CDK16 (human) (UniProt Q00536)
CDK7 (human) = CDK7 (human) (UniProt P50613)
CLK1 (human) = CLK1 (human) (UniProt P49759)
CLK3 (human) = CLK3 (human) (UniProt P49761)
Sequence of CLK3 (human) (P49761 whole entry, looked up): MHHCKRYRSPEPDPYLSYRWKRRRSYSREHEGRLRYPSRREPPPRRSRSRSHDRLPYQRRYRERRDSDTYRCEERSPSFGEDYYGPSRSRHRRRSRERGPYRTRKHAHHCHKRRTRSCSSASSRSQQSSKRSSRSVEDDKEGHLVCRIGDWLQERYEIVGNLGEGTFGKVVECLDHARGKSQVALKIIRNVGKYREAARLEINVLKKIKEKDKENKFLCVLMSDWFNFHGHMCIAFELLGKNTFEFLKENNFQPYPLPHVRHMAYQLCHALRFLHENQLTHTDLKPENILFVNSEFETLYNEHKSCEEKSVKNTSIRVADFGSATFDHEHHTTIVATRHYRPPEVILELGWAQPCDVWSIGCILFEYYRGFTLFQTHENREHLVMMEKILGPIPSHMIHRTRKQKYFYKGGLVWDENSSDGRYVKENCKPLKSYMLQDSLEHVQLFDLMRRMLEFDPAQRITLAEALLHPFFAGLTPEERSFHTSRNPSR

DCLK1 (human) = DCLK1 (human) (UniProt O15075)
DDR2 (human) = DDR2 (human) (UniProt Q16832)
EPHA2 (human) = EPHA2 (human) (UniProt P29317)
EPHA3 (human) = EPHA3 (human) (UniProt P29320)
EPHB1 (human) = EPHB1 (human) (UniProt P54762)
ERBB2 (human) = ERBB2 (human) (UniProt P04626)
FER (human) = FER (human) (UniProt P16591)
FGFR2 (human) = FGFR2 (human) (UniProt P21802)
FLT4 (human) = FLT4 (human) (UniProt P35916)
[1] = test system: KIT (human), P10721 [V559D]
MAP4K2 (human) = MAP4K2 (human) (UniProt Q12851)
MAPK7 (human) = MAPK7 (human) (UniProt Q13164)
Sequence of MAPK7 (human) (Q13164 whole entry, looked up): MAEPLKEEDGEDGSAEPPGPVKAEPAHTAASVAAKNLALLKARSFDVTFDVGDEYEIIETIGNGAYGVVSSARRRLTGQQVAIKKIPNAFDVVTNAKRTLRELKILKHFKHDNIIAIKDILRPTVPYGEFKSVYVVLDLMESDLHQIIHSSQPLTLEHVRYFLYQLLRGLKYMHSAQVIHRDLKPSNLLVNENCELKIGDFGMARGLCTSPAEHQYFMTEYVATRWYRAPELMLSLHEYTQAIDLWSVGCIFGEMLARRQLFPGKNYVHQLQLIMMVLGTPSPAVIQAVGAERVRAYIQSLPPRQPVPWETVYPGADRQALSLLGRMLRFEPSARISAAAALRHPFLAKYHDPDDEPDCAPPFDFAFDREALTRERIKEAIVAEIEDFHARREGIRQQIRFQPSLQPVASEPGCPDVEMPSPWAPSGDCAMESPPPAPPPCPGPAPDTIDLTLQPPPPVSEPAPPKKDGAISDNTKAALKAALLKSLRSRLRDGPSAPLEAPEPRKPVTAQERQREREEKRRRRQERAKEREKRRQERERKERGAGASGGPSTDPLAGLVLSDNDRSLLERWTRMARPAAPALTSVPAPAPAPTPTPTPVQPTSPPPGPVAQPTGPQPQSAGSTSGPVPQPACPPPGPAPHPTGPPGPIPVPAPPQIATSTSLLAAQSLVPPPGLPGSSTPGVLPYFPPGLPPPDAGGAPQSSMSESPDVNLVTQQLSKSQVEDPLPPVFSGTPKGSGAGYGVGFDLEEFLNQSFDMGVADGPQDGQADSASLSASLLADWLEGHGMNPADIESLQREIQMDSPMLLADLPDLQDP

MAPK8 (human) = MAPK8 (human) (UniProt P45983)
MST1R (human) = MST1R (human) (UniProt Q04912)
MUSK (human) = MUSK (human) (UniProt O15146)
PDPK1 (human) = PDPK1 (human) (UniProt O15530)
PLK3 (human) = PLK3 (human) (UniProt Q9H4B4)
PRKAA2 (human) = PRKAA2 (human) (UniProt P54646)
Sequence of PRKAA2 (human) (P54646 whole entry, looked up): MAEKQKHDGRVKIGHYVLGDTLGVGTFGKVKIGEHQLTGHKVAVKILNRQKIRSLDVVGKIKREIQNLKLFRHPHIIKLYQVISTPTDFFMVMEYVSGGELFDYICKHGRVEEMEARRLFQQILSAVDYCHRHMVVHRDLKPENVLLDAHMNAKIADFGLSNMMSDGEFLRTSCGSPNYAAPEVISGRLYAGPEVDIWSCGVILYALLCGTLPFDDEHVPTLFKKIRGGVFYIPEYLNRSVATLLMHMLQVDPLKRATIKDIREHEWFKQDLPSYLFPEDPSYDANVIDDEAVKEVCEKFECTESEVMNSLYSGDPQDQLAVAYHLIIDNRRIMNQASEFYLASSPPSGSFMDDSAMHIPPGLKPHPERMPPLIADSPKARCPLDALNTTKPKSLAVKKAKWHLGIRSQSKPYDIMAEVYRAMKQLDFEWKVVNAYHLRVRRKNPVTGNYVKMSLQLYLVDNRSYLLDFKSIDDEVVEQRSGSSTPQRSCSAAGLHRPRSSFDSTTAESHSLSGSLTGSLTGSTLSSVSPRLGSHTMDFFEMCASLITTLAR

PRKACB (human) = PRKACB (human) (UniProt P22694)
PRKD3 (human) = PRKD3 (human) (UniProt O94806)
RPS6KA1 KD2 (human) = RPS6KA1 KD2 (human) (UniProt Q15418)
RPS6KA2 KD2 (human) = RPS6KA2 KD2 (human) (UniProt Q15349)
SGK110 (human) = SGK110 (human) (UniProt P0C264)
SIK2 (human) = SIK2 (human) (UniProt Q9H0K1)
STK16 (human) = STK16 (human) (UniProt O75716)
STK17A (human) = STK17A (human) (UniProt Q9UEE5)
Sequence of STK17A (human) (Q9UEE5 whole entry, looked up): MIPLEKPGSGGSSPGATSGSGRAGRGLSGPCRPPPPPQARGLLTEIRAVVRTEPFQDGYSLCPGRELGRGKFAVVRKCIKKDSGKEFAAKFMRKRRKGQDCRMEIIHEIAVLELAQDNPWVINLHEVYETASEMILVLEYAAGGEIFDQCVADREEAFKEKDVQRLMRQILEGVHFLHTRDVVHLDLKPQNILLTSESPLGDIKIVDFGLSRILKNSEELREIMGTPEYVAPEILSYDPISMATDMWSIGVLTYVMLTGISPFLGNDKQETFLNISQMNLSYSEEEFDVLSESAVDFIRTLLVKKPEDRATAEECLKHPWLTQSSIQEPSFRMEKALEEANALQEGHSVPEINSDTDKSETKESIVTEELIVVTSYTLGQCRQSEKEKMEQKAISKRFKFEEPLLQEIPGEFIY

TESK1 (human) = TESK1 (human) (UniProt Q15569)
TNNI3K (human) = TNNI3K (human) (UniProt Q59H18)
ULK1 (human) = ULK1 (human) (UniProt O75385)
Sequence of ULK1 (human) (O75385 whole entry, looked up): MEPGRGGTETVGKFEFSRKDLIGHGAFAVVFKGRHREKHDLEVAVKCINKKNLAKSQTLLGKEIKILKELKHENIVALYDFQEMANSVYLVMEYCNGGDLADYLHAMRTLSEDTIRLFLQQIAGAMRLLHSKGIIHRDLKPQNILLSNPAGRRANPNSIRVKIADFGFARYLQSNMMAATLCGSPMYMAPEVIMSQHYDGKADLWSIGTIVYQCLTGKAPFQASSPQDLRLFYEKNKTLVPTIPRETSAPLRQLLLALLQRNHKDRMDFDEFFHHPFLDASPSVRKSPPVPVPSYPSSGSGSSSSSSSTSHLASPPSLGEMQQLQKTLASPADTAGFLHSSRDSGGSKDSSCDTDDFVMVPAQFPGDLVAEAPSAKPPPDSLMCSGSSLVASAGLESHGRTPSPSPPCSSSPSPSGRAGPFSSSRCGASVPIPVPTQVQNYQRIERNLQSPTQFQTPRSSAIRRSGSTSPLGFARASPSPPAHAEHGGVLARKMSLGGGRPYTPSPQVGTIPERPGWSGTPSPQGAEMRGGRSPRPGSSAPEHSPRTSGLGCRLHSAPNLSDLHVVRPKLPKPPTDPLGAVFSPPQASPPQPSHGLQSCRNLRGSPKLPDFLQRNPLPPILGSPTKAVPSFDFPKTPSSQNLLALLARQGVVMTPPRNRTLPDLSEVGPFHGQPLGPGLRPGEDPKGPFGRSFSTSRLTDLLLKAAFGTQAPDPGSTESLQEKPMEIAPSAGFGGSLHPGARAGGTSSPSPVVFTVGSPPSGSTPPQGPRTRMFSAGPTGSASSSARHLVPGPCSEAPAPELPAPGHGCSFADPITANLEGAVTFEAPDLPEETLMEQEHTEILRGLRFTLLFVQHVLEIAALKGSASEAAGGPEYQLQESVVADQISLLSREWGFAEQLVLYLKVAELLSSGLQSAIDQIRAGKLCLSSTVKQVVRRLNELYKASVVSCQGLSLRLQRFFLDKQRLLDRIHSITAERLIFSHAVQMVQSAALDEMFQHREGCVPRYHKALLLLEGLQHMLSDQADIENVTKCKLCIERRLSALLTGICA

ULK2 (human) = ULK2 (human) (UniProt Q8IYT8)
WEE2 (human) = WEE2 (human) (UniProt P0C1S8)
Sequence of WEE2 (human) (P0C1S8 whole entry, looked up): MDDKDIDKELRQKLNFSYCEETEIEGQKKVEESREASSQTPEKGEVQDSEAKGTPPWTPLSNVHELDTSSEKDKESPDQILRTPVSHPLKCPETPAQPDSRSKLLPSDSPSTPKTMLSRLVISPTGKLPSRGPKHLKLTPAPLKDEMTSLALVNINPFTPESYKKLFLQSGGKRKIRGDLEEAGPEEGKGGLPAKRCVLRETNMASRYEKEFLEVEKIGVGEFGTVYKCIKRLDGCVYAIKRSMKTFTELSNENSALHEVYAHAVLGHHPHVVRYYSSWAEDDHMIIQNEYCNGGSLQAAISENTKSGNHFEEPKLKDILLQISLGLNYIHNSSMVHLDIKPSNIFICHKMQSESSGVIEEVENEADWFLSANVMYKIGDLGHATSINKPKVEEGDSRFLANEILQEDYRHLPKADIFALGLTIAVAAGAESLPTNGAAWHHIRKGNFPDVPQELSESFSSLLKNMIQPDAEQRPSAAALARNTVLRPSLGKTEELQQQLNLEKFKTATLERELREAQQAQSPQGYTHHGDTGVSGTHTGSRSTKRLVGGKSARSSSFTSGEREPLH

CSNK1E (human) = CSNK1E (human) (UniProt P49674)
MKNK2 (human) = MKNK2 (human) (UniProt Q9HBH9)

Sequence of ADCK4 (human) (Q96D53 whole entry, looked up): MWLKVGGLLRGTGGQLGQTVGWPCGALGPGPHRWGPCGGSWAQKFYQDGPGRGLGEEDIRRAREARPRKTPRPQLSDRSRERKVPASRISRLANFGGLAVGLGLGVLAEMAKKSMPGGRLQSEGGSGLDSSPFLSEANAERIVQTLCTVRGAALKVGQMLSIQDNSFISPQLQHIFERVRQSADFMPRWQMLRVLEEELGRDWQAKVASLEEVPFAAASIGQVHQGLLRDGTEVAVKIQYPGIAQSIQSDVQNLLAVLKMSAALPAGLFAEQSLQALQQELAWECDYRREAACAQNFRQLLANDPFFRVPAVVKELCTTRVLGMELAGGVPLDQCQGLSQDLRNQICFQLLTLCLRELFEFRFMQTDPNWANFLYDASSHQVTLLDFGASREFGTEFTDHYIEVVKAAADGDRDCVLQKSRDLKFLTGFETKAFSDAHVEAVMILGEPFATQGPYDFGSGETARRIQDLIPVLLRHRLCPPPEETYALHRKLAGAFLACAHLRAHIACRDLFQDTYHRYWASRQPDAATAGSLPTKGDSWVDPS
Sequence of CLK1 (human) (P49759 whole entry, looked up): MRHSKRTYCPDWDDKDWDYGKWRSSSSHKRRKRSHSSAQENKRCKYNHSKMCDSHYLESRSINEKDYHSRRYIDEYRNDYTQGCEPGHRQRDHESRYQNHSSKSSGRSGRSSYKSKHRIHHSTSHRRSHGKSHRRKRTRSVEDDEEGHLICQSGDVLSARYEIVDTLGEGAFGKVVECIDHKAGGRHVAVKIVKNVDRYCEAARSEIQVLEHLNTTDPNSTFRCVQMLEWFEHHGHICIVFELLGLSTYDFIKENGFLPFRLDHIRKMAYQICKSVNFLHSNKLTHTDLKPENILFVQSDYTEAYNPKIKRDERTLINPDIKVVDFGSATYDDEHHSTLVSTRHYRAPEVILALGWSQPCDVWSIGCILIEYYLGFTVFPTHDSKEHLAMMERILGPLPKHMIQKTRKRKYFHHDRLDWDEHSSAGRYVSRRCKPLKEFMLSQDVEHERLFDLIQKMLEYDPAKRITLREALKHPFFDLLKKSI

Row | SMILES | kinase still bound, per cent of control (ACVR1B (human)) [%] | kinase still bound, per cent of control (ADCK4 (human)) [%] | kinase still bound, per cent of control (AURKA (human)) [%] | kinase still bound, per cent of control (CDK16 (human)) [%] | kinase still bound, per cent of control (CDK7 (human)) [%] | kinase still bound, per cent of control (CLK1 (human)) [%] | kinase still bound, per cent of control (CLK3 (human)) [%] | kinase still bound, per cent of control (DDR2 (human)) [%] | kinase still bound, per cent of control (EPHA3 (human)) [%] | kinase still bound, per cent of control (EPHB1 (human)) [%] | kinase still bound, per cent of control (FER (human)) [%] | kinase still bound, per cent of control (FGFR2 (human)) [%] | kinase still bound, per cent of control (FLT4 (human)) [%] | kinase still bound, per cent of control [1] [%] | kinase still bound, per cent of control (MAP4K2 (human)) [%] | kinase still bound, per cent of control (MAPK7 (human)) [%] | kinase still bound, per cent of control (MAPK8 (human)) [%] | kinase still bound, per cent of control (MST1R (human)) [%] | kinase still bound, per cent of control (MUSK (human)) [%] | kinase still bound, per cent of control (PDPK1 (human)) [%] | other results
1 | Nc1ccc(-c2ccc3ncc4ccc(=O)n(-c5cccc(C(F)(F)F)c5)c4c3c2)cn1 | 96 | 77 | 100 | 98 | 51 | 12 | 71 | 99 | 86 | 100 | 95 | 90 | 85 | 55 | 68 | 100 | 60 | 90 | 100 | 100 | kinase still bound, per cent of control (DCLK1 (human)): 97%; kinase still bound, per cent of control (EPHA2 (human)): 99%; kinase still bound, per cent of control (ERBB2 (human)): 97%; kinase still bound, per cent of control (PLK3 (human)): 94%; kinase still bound, per cent of control (PRKAA2 (human)): 95%; kinase still bound, per cent of control (PRKACB (human)): 85%; kinase still bound, per cent of control (PRKD3 (human)): 100%; kinase still bound, per cent of control (RPS6KA1 KD2 (human)): 100%; kinase still bound, per cent of control (RPS6KA2 KD2 (human)): 86%; kinase still bound, per cent of control (SGK110 (human)): 100%; kinase still bound, per cent of control (SIK2 (human)): 73%; kinase still bound, per cent of control (STK16 (human)): 59%; kinase still bound, per cent of control (STK17A (human)): 100%; kinase still bound, per cent of control (TESK1 (human)): 94%; kinase still bound, per cent of control (TNNI3K (human)): 100%; kinase still bound, per cent of control (ULK1 (human)): 96%; kinase still bound, per cent of control (ULK2 (human)): 95%; kinase still bound, per cent of control (WEE2 (human)): 100%
2 | CCCS(=O)(=O)Nc1ccc(F)c(C(=O)c2c[nH]c3ncc(-c4ccc(Cl)cc4)cc23)c1F | 78 | 100 | 81 | 96 | 82 | 70 | 92 | 35 | 44 | 100 | 54 | 64 | 82 | 0.05 | 59 | 69 | 18 | 100 | 99 | 70 | kinase still bound, per cent of control (DCLK1 (human)): 88%; kinase still bound, per cent of control (EPHA2 (human)): 99%; kinase still bound, per cent of control (ERBB2 (human)): 100%; kinase still bound, per cent of control (PLK3 (human)): 93%; kinase still bound, per cent of control (PRKAA2 (human)): 63%; kinase still bound, per cent of control (PRKACB (human)): 100%; kinase still bound, per cent of control (PRKD3 (human)): 44%; kinase still bound, per cent of control (RPS6KA1 KD2 (human)): 59%; kinase still bound, per cent of control (RPS6KA2 KD2 (human)): 81%; kinase still bound, per cent of control (SGK110 (human)): 100%; kinase still bound, per cent of control (SIK2 (human)): 61%; kinase still bound, per cent of control (STK16 (human)): 84%; kinase still bound, per cent of control (STK17A (human)): 62%; kinase still bound, per cent of control (TESK1 (human)): 29%; kinase still bound, per cent of control (TNNI3K (human)): 65%; kinase still bound, per cent of control (ULK1 (human)): 93%; kinase still bound, per cent of control (ULK2 (human)): 100%; kinase still bound, per cent of control (WEE2 (human)): 100%
3 | O=C(O)c1ccc(Nc2ncc3c(n2)-c2ccc(Cl)cc2C(c2c(F)cccc2F)=NC3)cc1 | 94 | 95 | 0.5 | 100 | 77 | 63 | 14 | 3.6 | 15 | 2.2 | 22 | 7.7 | 18 | 63 | 88 | 100 | 100 | 92 | 93 | 35 | kinase still bound, per cent of control (CSNK1E (human)): 100%; kinase still bound, per cent of control (MKNK2 (human)): 84%; kinase still bound, per cent of control (PLK3 (human)): 18%; kinase still bound, per cent of control (PRKAA2 (human)): 67%; kinase still bound, per cent of control (PRKACB (human)): 58%; kinase still bound, per cent of control (PRKD3 (human)): 96%; kinase still bound, per cent of control (RPS6KA2 KD2 (human)): 64%; kinase still bound, per cent of control (SGK110 (human)): 58%; kinase still bound, per cent of control (SIK2 (human)): 49%; kinase still bound, per cent of control (STK16 (human)): 30%; kinase still bound, per cent of control (STK17A (human)): 1.9%; kinase still bound, per cent of control (TESK1 (human)): 100%; kinase still bound, per cent of control (TNNI3K (human)): 85%; kinase still bound, per cent of control (ULK1 (human)): 40%; kinase still bound, per cent of control (ULK2 (human)): 100%; kinase still bound, per cent of control (WEE2 (human)): 89%
